The target of this test is T1, transketolase (TKT) (Homo sapiens, UniProt P29401).
T1 sequence (P29401 1-623): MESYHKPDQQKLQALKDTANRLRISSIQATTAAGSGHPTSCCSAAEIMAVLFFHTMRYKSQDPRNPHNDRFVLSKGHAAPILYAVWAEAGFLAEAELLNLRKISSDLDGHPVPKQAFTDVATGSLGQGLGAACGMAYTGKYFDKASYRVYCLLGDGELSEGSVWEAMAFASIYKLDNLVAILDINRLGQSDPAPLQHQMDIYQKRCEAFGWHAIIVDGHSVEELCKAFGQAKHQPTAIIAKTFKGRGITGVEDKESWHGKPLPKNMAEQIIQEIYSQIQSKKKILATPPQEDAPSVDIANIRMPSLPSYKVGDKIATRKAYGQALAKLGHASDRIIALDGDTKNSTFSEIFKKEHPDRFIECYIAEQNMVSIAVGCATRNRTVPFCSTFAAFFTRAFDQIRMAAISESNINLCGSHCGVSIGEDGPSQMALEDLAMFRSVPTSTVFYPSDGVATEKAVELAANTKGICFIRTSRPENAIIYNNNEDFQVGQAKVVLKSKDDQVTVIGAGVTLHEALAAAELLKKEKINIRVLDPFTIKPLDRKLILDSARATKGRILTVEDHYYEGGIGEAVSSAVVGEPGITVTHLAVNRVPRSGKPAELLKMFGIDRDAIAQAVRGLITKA
Kind of test: Bio-layer interferometry with biotinylated TKT on SA biosensors; supported by DARTS and CETSA in A549/DDP cells. It is filed as binding. On the technique in general: BLI is a label-free optical method that tracks binding on a fibre tip over time.

Molecules are shown by their SMILES.

For orientation: Kd means the equilibrium constant for the complex coming apart. Higher therefore signals lower affinity. For the compound `CN1C(=O)[C@@]23C[C@]4([C@]56C[C@@]78SS[C@@](CO)(C(=O)N7[C@H]5Nc5ccccc56)N(C)C8=O)c5ccccc5N[C@@H]4N2C(=O)[C@]1(CO)SS3` [chaetocin], the Kd amounted to 63.2 µM.

Source of the values: PMC11939327, “Chaetocin, a Natural Inhibitor of Transketolase, Suppresses the Non-Oxidative Pentose Phosphate Pathway and Inhibits the Growth of Drug-Resistant Non-Small Cell Lung Cancer” (Antioxidants, 2025).
